PMC10483525, “Synthesis, Structural Investigations, DNA/BSA Interactions, Molecular Docking Studies, and Anticancer Activity of a New 1,4-Disubstituted 1,2,3-Triazole Derivative” (ACS Omega, 2023)

Columns and labels:
[1] = target: T1, BSA (bovine serum albumin) (Bos taurus, UniProt P02769); test: BSA UV–vis absorption; assay type: binding; settings: BSA 10 μM + compound 10 μM
T1 construct: purchased Merck/Sigma
Procedure: The BSA–compound interactions are studied by comparing the UV–vis spectra (200–400 nm) of BSA (10 μM) alone and a mixture of [BSA (10 μM) + compound 3 (10 μM)] at room temperature in 10 mM Tris-HCl buffer with a pH of 7.4.[85]

HEK-293 = test: MTT assay; assay type: cell-based, human; settings: Homo sapiens, HEK293
Procedure: (§1) Human cancer cell lines (MDA-MB-231, LNCaP, Caco-2) and a human healthy cell line (HEK-293) were obtained from the European Collection of Cell Cultures. The cells were incubated in a humidified incubator (37 °C, 5% CO2) and cultured under standard conditions in Dulbecco’s modified Eagle medium (DMEM), 10% heat-inactivated fetal bovine serum, 100 U mL^–1 penicillin, 100 U mL^–1 streptomycin, and 4 mM L-glutamine. […] A cell culture medium was used to make further dilutions, while keeping the equivalent of DMF below 0.5% of the total volume.[94] […]
(§2) 7. Cell Viability Inhibition Assay
(§3) MDA-MB-231, LNCaP, Caco-2 and HEK-293 cells (5x10^3 per well) seeded in 96-well plates to assess cell viability by the 3-[4,5-dimethylthiazol-2-yl]-2,5-diphenyltetrazolium bromide (MTT) assay for 24 h at 37°C. Then cells were treated with compound 3 at different concentrations (3-100 µM) at 100μl/well. In parallel, the traditional anticancer agent cisplatin and etoposid was used as positive controls under identical conditions. After 24, 48 and 72 h incubation, 5 mg/ml MTT solution (20 μl/well) was added and cultured for another 4 h. Then, the supernatant was discarded and dimethyl sulfoxide was added (100 μl/well). The absorbance (A) was measured spectrophotometrically at 540 nm by a Microplate Reader (SpectraMax i3x).
(§4) A graph was plotted between the concentrations of the extract versus the percent viability. The […]
(§5) calculated from graph. All assays were performed in three replicates per concentration level. 11 […]

LNCaP = test: MTT assay; assay type: cell-based, human; settings: for IC50: Homo sapiens, LNCaP
Procedure: as §1, §2, §3, §4, §5

MDA-MB-231 = test: MTT assay; assay type: cell-based, human; settings: for IC50: Homo sapiens
Procedure: as §1, §2, §3, §4, §5

Caco-2 cells = test: ROS determination (flow cytometry); assay type: cell-based, human; settings: Caco-2, 48 h, 0, 7.5, 1.5, and 30 μM
Procedure: Biosciences, San Jose, CA, USA)
The intracellular ROS generation was evaluated using The Total Reactive Oxygen Species
(ROS) Assay Kit. Caco2 cells (5x10^5 per well) were seeded in 6-well plates and were incubated for 24 h in a 37°C incubator with 5% CO2. Then cells were treated with compound 3 ([…]) for 48 h to induce production of ROS. Cells were harvested and incubated with 10 […] H2DCFDA for 30 min at 37°C incubator with 5% CO2, followed by resuspending three times with pre-warmed HBSS (2000 rpm×3 min). Total ROS levels in live cells were measured using a flow cytometry (BD Biosciences, San Jose, CA, USA).

[2] = 48 h, SI = IC50 on normal cells/IC50 on cancer cells

T1 sequence (P02769 25-607): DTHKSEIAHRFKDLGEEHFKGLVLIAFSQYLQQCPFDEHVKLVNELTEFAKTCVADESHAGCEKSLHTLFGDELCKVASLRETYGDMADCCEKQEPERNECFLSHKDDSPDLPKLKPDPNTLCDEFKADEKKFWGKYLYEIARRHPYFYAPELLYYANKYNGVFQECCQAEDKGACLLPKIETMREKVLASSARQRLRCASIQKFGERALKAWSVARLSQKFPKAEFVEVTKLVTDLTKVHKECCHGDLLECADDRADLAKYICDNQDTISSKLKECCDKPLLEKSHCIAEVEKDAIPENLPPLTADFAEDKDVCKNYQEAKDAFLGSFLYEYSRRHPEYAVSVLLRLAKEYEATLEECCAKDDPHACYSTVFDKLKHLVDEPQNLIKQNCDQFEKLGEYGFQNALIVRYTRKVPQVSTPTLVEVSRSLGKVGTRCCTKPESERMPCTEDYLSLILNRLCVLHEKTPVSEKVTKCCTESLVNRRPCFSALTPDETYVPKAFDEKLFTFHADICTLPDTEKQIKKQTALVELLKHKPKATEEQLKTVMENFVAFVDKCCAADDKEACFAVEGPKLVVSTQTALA

O=Cc1ccc(OCc2cn(-c3ccc(Cl)c(Cl)c3)nn2)cc1O [Compound 3, 4-((1-(3,4-Dichlorophenyl)-1H-1,2,3-triazol-4-yl)methoxy)-2-hydroxybenzaldehyde]
Δλ (blue shift of BSA absorption) [1]: ~1 nm | IC50 (HEK-293; HEK-293, 24 h): 43.95 ± 0.2 µM | IC50 (HEK-293; HEK-293, 48 h): 24.44 ± 0.13 µM | IC50 (HEK-293; HEK-293, 72 h): 17.09 ± 0.08 µM | SI HEK-293/LNCap (LNCaP; [2]): 1.43 | IC50 (LNCaP; 24 h): 44.82 ± 0.09 µM | IC50 (LNCaP; 48 h): 17.1 ± 0.26 µM | IC50 (LNCaP; 72 h): 10.05 ± 0.03 µM | SI, times higher than cisplatin (LNCaP; LNCap cells): 8 times | SI HEK-293/MDA-MB-231 (MDA-MB-231; [2]): 2.3 | IC50 (MDA-MB-231; MDA-MB-231, 24 h): 65.03 ± 0.31 µM | IC50 (MDA-MB-231; MDA-MB-231, 48 h): 10.64 ± 0.03 µM | IC50 (MDA-MB-231; MDA-MB-231, 72 h): 8.39 ± 0.04 µM | ROS production (fluorescence intensity) (Caco-2 cells): increased the fluorescence intensity | melting point: 144 to 145 °C
